Results on 18 compounds are retold here after patent US20250257086A1, “EGFR DEGRADATION AGENT” (Beijing Tide Pharmaceutical Co., Ltd., priority 2022, published 2025).

The assay concerns the target Ba/F3 (EGFR^L858R/T790M/C797S) cells (Homo sapiens, UniProt P00533, T790M/C797S/L858R, cells depend on it). In words: Antiproliferative activity on Ba/F3 (EGFR L858R/T790M/C797S) cells (CTG). Type of assay: cell-based. To be noted: 72h incubation, CTG luminescence, read-out: IC50 (nM), antiproliferative activity. The procedure: 30 nL of the compound dilution was added to a 384-well plate by Echo (Labcyte, Echo550).
The percent inhibition rate (% inhibition) was calculated by the following formula
[formula] • LUMcmpd: Luminescence value of assay compound. • LUMpositive: Average LUM value of positive drug with a concentration of 10 μM. • LUMvehicle: Average LUM value of negative control group without drug treatment.
The nonlinear regression curve (dose response-variable slope) between the value of inhibition rate (%) and the logarithm of compound concentration was fitted with graphpad prism 8.0, the effect dose curve of compound was drawn, and the IC50 value was calculated.
Y=Bottom+(Top−Bottom)/(1+10^((Log IC50−X)*HillSlope)) • X-axis: logarithm of compound concentration; Y axis: inhibition rate (% inhibition).

Ba/F3 (EGFR^L858R/T790M/C797S) cells, sequence (P00533 whole entry T790M/C797S/L858R): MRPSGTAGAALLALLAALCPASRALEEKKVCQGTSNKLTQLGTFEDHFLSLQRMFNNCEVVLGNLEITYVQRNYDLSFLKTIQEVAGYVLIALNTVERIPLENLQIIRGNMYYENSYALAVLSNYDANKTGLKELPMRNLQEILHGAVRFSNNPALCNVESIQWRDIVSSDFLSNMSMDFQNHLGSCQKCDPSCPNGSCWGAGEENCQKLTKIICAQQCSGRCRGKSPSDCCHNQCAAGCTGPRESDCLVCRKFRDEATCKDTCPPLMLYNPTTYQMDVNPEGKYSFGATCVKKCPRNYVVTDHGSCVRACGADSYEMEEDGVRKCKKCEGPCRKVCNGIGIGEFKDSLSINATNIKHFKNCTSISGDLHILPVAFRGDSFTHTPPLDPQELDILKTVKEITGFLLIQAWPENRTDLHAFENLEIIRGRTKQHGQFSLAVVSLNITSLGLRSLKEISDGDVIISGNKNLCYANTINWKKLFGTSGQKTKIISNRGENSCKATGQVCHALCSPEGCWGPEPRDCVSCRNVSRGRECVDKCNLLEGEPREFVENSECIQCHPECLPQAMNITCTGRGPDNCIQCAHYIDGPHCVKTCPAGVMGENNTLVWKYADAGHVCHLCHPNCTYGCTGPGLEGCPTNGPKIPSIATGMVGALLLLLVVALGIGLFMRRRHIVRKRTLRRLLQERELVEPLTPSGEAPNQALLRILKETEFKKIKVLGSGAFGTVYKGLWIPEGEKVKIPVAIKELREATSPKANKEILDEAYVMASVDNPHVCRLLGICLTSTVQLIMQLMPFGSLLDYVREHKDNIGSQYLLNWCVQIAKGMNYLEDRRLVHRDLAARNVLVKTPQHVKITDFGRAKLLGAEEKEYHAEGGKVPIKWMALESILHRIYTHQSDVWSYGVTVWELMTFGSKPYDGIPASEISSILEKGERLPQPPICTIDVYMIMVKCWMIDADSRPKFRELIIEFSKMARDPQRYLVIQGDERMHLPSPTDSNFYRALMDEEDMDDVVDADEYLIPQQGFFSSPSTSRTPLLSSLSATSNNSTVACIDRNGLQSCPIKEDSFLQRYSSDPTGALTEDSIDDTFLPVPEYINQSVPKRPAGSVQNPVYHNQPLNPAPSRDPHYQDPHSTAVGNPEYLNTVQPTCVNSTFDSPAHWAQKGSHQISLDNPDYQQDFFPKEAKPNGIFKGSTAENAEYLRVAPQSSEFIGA

Consider `C=CC(=O)Nc1cc(Nc2ncc(Br)c(Nc3ccccc3P(C)(C)=O)n2)c(OC)cc1N1CCC(N2CCN(C)CC2)CC1` [Comparative compound L495, reference compound], for which the GI50 came to 3740 nM.

Turning to `CC#CC(=O)Nc1cc(Nc2ncc(Cl)c(Nc3ccccc3P(C)(C)=O)n2)c(OC)cc1N1CCC(N2CCN(C)CC2)CC1` [Comparative compound L521, reference compound], the GI50 was found to be 3050 nM.

Turning to `C=CC(=O)Nc1cc(Nc2ncc(Br)c(Nc3ccccc3P(C)(C)=O)n2)c(OC)cc1N1CCC(N2CCN(CCCCC#Cc3cccc4c3CN(C3CCC(=O)NC3=O)C4=O)CC2)CC1` (stereo not drawn) [Compound D479, N-(5-((5-bromo-4-((2-(dimethylphosphoryl)phenyl)amino)pyrimidin-2-yl)amino)-2-(4-(4-(6-(2-(2,6-dioxopiperidin-3-yl)-1-oxoisoindolin-4-yl)hex-5-yn-1-yl)piperazin-1-yl)piperidin-1-yl)-4-methoxyphenyl)acrylamide], the GI50 came out at 86.8 nM.

On to `C=CC(=O)Nc1cc(Nc2ncc(Cl)c(Nc3ccccc3P(C)(C)=O)n2)c(OC)cc1N1CCC(N2CCN(CCCC#Cc3cccc4c3CN(C3CCC(=O)NC3=O)C4=O)CC2)CC1` (stereo not drawn) [Compound D481, N-(5-((5-chloro-4-((2-(dimethylphosphoryl)phenyl)amino)pyrimidin-2-yl)amino)-2-(4-(4-(5-(2-(2,6-dioxopiperidin-3-yl)-1-oxoisoindolin-4-yl)pent-4-yn-1-yl)piperazin-1-yl)piperidin-1-yl)-4-methoxyphenyl)acrylamide], for which the GI50 was 68.7 nM.

On to `C=CC(=O)Nc1cc(Nc2ncc(Br)c(Nc3ccccc3P(C)(C)=O)n2)c(OC)cc1N1CCC(N2CCN(CCCCCC#Cc3cccc4c3CN(C3CCC(=O)NC3=O)C4=O)CC2)CC1` (stereo not drawn) [Compound D503, N-(5-((5-bromo-4-((2-(dimethylphosphoryl)phenyl)amino)pyrimidin-2-yl)amino)-2-(4-(4-(7-(2-(2,6-dioxopiperidin-3-yl)-1-oxoisoindolin-4-yl)hept-6-yn-1-yl)piperazin-1-yl)piperidin-1-yl)-4-methoxyphenyl)acrylamide], for which the GI50 amounted to 51.2 nM.

For `C=CC(=O)Nc1cc(Nc2ncc(Br)c(Nc3ccccc3P(C)(C)=O)n2)ccc1N1CCC(N2CCN(CCCC#Cc3cccc4c3CN(C3CCC(=O)NC3=O)C4=O)CC2)CC1` (stereo not drawn) [Compound D549, N-(5-((5-bromo-4-((2-(dimethylphosphoryl)phenyl)amino)pyrimidin-2-yl)amino)-2-(4-(4-(5-(2-(2,6-dioxopiperidin-3-yl)-1-oxoisoindolin-4-yl)pent-4-yn-1-yl)piperazin-1-yl)piperidin-1-yl)phenyl)acrylamide], the GI50 is 7.41 nM.

In the case of `C=CC(=O)Nc1cc(Nc2ncc(Br)c(Nc3ccccc3P(C)(C)=O)n2)ccc1N1CCC(N2CCN(CCCCC#Cc3cccc4c3CN(C3CCC(=O)NC3=O)C4=O)CC2)CC1` (stereo not drawn) [Compound D550, N-(5-((5-bromo-4-((2-(dimethylphosphoryl)phenyl)amino)pyrimidin-2-yl)amino)-2-(4-(4-(6-(2-(2,6-dioxopiperidin-3-yl)-1-oxoisoindolin-4-yl)hex-5-yn-1-yl)piperazin-1-yl)piperidin-1-yl)phenyl)acrylamide], the GI50 was found to be 14.4 nM.

Take `C=CC(=O)Nc1cc(Nc2ncc(Br)c(Nc3ccccc3P(C)(C)=O)n2)ccc1N1CCC(N2CCN(CCCCCC#Cc3cccc4c3CN(C3CCC(=O)NC3=O)C4=O)CC2)CC1` (stereo not drawn) [Compound D551, N-(5-((5-bromo-4-((2-(dimethylphosphoryl)phenyl)amino)pyrimidin-2-yl)amino)-2-(4-(4-(7-(2-(2,6-dioxopiperidin-3-yl)-1-oxoisoindolin-4-yl)hept-6-yn-1-yl)piperazin-1-yl)piperidin-1-yl)phenyl)acrylamide]: the GI50 is 14.5 nM.

`C=C(F)C(=O)Nc1cc(Nc2ncc(Cl)c(Nc3ccccc3P(C)(C)=O)n2)c(OC)cc1N1CCC(N2CCN(CCCCC#Cc3cccc4c3CN(C3CCC(=O)NC3=O)C4=O)CC2)CC1` (stereo not drawn) [Compound D553, N-(5-((5-chloro-4-((2-(dimethylphosphoryl)phenyl)amino)pyrimidin-2-yl)amino)-2-(4-(4-(6-(2-(2,6-dioxopiperidin-3-yl)-1-oxoisoindolin-4-yl)hex-5-yn-1-yl)piperazin-1-yl)piperidin-1-yl)-4-methoxyphenyl)-2-fluoroacrylamide]: the GI50 was 49.5 nM.

Take `C=C(F)C(=O)Nc1cc(Nc2ncc(Cl)c(Nc3ccccc3P(C)(C)=O)n2)c(OC)cc1N1CCC(N2CCN(CCCCCC#Cc3cccc4c3CN(C3CCC(=O)NC3=O)C4=O)CC2)CC1` (stereo not drawn) [Compound D554, N-(5-((5-chloro-4-((2-(dimethylphosphoryl)phenyl)amino)pyrimidin-2-yl)amino)-2-(4-(4-(7-(2-(2,6-dioxopiperidin-3-yl)-1-oxoisoindolin-4-yl)hept-6-yn-1-yl)piperazin-1-yl)piperidin-1-yl)-4-methoxyphenyl)-2-fluoroacrylamide]: the GI50 turned out to be 45.2 nM.

On to `COc1cc(N2CCC(N3CCN(CCCC#Cc4cccc5c4CN(C4CCC(=O)NC4=O)C5=O)CC3)CC2)c(NC(=O)/C=C/CN(C)C)cc1Nc1ncc(Cl)c(Nc2ccccc2P(C)(C)=O)n1` (stereo not drawn) [Compound D555, N-(5-((5-chloro-4-((2-(dimethylphosphoryl)phenyl)amino)pyrimidin-2-yl)amino)-2-(4-(4-(5-(2-(2,6-dioxopiperidin-3-yl)-1-oxoisoindolin-4-yl)pent-4-yn-1-yl)piperazin-1-yl)piperidin-1-yl)-4-methoxyphenyl)-4-(dimethylamino)but-2-enamide], for which the GI50 came out at 67.6 nM.

Take `COc1cc(N2CCC(N3CCN(CCCCC#Cc4cccc5c4CN(C4CCC(=O)NC4=O)C5=O)CC3)CC2)c(NC(=O)/C=C/CN(C)C)cc1Nc1ncc(Cl)c(Nc2ccccc2P(C)(C)=O)n1` (stereo not drawn) [Compound D556, (E)-N-(5-((5-chloro-4-((2-(dimethylphosphoryl)phenyl)amino)pyrimidin-2-yl)amino)-2-(4-(4-(6-(2-(2,6-dioxopiperidin-3-yl)-1-oxoisoindolin-4-yl)hex-5-yn-1-yl)piperazin-1-yl)piperidin-1-yl)-4-dimethoxyphenyl)-4-(dimethylamino)but-2-enamide]: the GI50 stood at 582 nM.

In the case of `COc1cc(N2CCC(N3CCN(CCCCCC#Cc4cccc5c4CN(C4CCC(=O)NC4=O)C5=O)CC3)CC2)c(NC(=O)/C=C/CN(C)C)cc1Nc1ncc(Cl)c(Nc2ccccc2P(C)(C)=O)n1` (stereo not drawn) [Compound D557, (E)-N-(5-((5-chloro-4-((2-(dimethylphosphoryl)phenyl)amino)pyrimidin-2-yl)amino)-2-(4-(4-(7-(2-(2,6-dioxopiperidin-3-yl)-1-oxoisoindolin-4-yl)hept-6-yn-1-yl)piperazin-1-yl)piperidin-1-yl)-4-dimethoxyphenyl)-4-(dimethylamino)but-2-enamide], the GI50 turned out to be 383 nM.

Regarding `CC#CC(=O)Nc1cc(Nc2ncc(Cl)c(Nc3ccccc3P(C)(C)=O)n2)c(OC)cc1N1CCC(N2CCN(CCCCC#Cc3cccc4c3CN(C3CCC(=O)NC3=O)C4=O)CC2)CC1` (stereo not drawn) [Compound D559, N-(5-((5-chloro-4-((2-(dimethylphosphoryl)phenyl)amino)pyrimidin-2-yl)amino)-2-(4-(4-(6-(2-(2,6-dioxopiperidin-3-yl)-1-oxoisoindolin-4-yl)hex-5-yn-1-yl)piperazin-1-yl)piperidin-1-yl)-4-methoxyphenyl)but-2-ynamide], the GI50 stood at 50.4 nM.

For the compound `CC#CC(=O)Nc1cc(Nc2ncc(Cl)c(Nc3ccccc3P(C)(C)=O)n2)c(OC)cc1N1CCC(N2CCN(CCCCCC#Cc3cccc4c3CN(C3CCC(=O)NC3=O)C4=O)CC2)CC1` (stereo not drawn) [Compound D560, N-(5-((5-chloro-4-((2-(dimethylphosphoryl)phenyl)amino)pyrimidin-2-yl)amino)-2-(4-(4-(7-(2-(2,6-dioxopiperidin-3-yl)-1-oxoisoindolin-4-yl)hept-6-yn-1-yl)piperazin-1-yl)piperidin-1-yl)-4-methoxyphenyl)but-2-ynamide], the GI50 was determined as 112 nM.

Regarding `COc1cc(N2CCC(N3CCN(CCCCCC#Cc4cccc5c4CN(C4CCC(=O)NC4=O)C5=O)CC3)CC2)c(NC(=O)/C=C/CN(C)C)cc1Nc1ncc(Br)c(Nc2ccccc2P(C)(C)=O)n1` (stereo not drawn) [Compound D563, N-(5-((5-bromo-4-((2-(dimethylphosphoryl)phenyl)amino)pyrimidin-2-yl)amino)-2-(4-(4-(7-(2-(2,6-dioxopiperidin-3-yl)-1-oxoisoindolin-4-yl)hept-6-yn-1-yl)piperazin-1-yl)piperidin-1-yl)-4-dimethoxyphenyl)-4-(dimethylamino)but-2-enamide], the GI50 worked out at 306 nM.

As to `C=C(C)C(=O)Nc1cc(Nc2ncc(Cl)c(Nc3ccccc3P(C)(C)=O)n2)c(OC)cc1N1CCC(N2CCN(CCCC#Cc3cccc4c3CN(C3CCC(=O)NC3=O)C4=O)CC2)CC1` (stereo not drawn) [Compound D579, N-(5-((5-chloro-4-((2-(dimethylphosphoryl)phenyl)amino)pyrimidin-2-yl)amino)-2-(4-(4-(5-(2-(2,6-dioxopiperidin-3-yl)-1-oxoisoindolin-4-yl)pent-4-yn-1-yl)piperazin-1-yl)piperidin-1-yl)-4-methoxyphenyl)methacrylamide], the GI50 worked out at 41.4 nM.

With `COc1cc(N2CCC(N3CCN(CCCC#Cc4cccc5c4CN(C4CCC(=O)NC4=O)C5=O)CC3)CC2)c(NC(=O)/C=C/c2c[nH]cn2)cc1Nc1ncc(Cl)c(Nc2ccccc2P(C)(C)=O)n1` (stereo not drawn) [Compound D581, N-(5-((5-chloro-4-((2-(dimethylphosphoryl)phenyl)amino)pyrimidin-2-yl)amino)-2-(4-(4-(5-(2-(2,6-dioxopiperidin-3-yl)-1-oxoisoindolin-4-yl)pent-4-yn-1-yl)piperazin-1-yl)piperidin-1-yl)-4-methoxyphenyl)-3-(1H-imidazol-4-yl)acrylamide], the GI50 worked out at 2600 nM.
